Key:
[1] = system: DENV-2 16681 strain; experiment: DENV-2 antiviral assay (eGFP fluorescence, Vero cells); assay type: cell-based, Dengue virus; settings: DENV-2 16681 eGFP, MOI 0.5, 3 days
Experimental: The antiviral activity of all the compounds of the invention was tested against the DENV-2 16681 strain which was labeled with enhanced green fluorescent protein (eGPF). The culture medium consists of minimal essential medium supplemented with 2% of heat-inactivated fetal calf serum, 0.04% gentamycin (50 mg/mL) and 2 mM of L-glutamine. Vero cells, obtained from ECACC, were suspended in culture medium and 25 μL was added to 384-well plates (2500 cells/well), which already contain the antiviral compounds. Typically, these plates contain a 5-fold serial dilution of 9 dilution steps of the test compound at 200 times the final concentration in 100% DMSO (200 nL). […] Finally, each plate contains wells which are assigned as virus controls (containing cells and virus in the absence of compound), cell controls (containing cells in the absence of virus and compound) and medium controls (containing medium in the absence of cells, virus and compounds). To the wells assigned as medium control, 25 μL of culture medium was added instead of Vero cells. Once the cells were added to the plates, the plates were incubated for 30 minutes at room temperature to allow the cells to distribute evenly within the wells. Next, the plates were incubated in a fully humidified incubator (37° C., 5% CO2) until the next day. Then, DENV-2 strain 16681, labeled with eGFP, was added at a multiplicity of infection (MOI) of 0.5. Therefore, 15 μL of virus suspension was added to all the wells containing test compound and to the wells assigned as virus control. In parallel, 15 μL of culture medium was added to the medium and cell controls. Next, the plates were incubated for 3 days in a fully humidified incubator (37° C., 5% CO2). At the day of the read out, the eGFP fluorescence was measured using an automated fluorescence microscope at 488 nm (blue laser). Using an in-house LIMS system, inhibition dose response curves for each compound were calculated and the half maximal effective concentration (EC50) was determined. Therefore, the percent inhibition (I) for every test concentration is calculated using the following formula: I=100*(ST-SCC)/(SVC-SCC), ST, SCC and SVC are the amount of eGFP signal in the test compound, cell control and virus control wells, respectively. The EC50 represents the concentration of a compound at which the virus replication is inhibited with 50%, as measured by a 50% reduction of the eGFP fluorescent intensity compared to the virus control. The EC50 is calculated using linear interpolation (Table 1).

[2] = system: Vero cells; settings: African green monkey

Row | Compound | EC50 [1] [µM] | CC50 [2] [µM]
1 | COc1cc(NC(C(=O)N2CCc3cc(OC)c(C(F)(F)F)cc32)c2ccc(Cl)cc2OCCCC(=O)O)cc(-n2cncn2)c1 (single isomer, unassigned) [Compound 12B] | 0.32 | 12
2 | COc1cc(NC(C(=O)N2CCc3cc(F)c(OC(F)(F)F)cc32)c2ccc(Cl)cc2OCCO)cc(-n2cncn2)c1 (single isomer, unassigned) [Compound 9A] | 0.25 | 4.2
3 | COc1cc(NC(C(=O)N2CCc3ccc(OC(F)(F)F)cc32)c2ccc(Cl)cc2OCCO)cc(-n2cncn2)c1 (single isomer, unassigned) [Compound 6B] | 0.092 | 7.3
4 | COc1cc(NC(C(=O)N2CCc3cc(OC)c(OC(F)(F)F)cc32)c2ccc(Cl)cc2OCCO)cc(-n2cncn2)c1 (single isomer, unassigned) [Compound 8B] | 0.25 | 12

Reference: patent publication US11083707B2, “Substituted indoline derivatives as dengue viral replication inhibitors” (JANSSEN PHARMACEUTICALS, INC., priority 2017, dated 2021)
